We go through one compound from EPA's ToxValDB 9.5 (doi:10.2903/j.efsa.2008.118r).

One data set has as its system Apis mellifera. The note with it: acute; duration: 48 hours; oral; unspecified; mortality.
In a further data set the test system is Canidae. The note with it: chronic; duration: 1 years; oral; M/F; Dog Other; histopathology: nonneoplastic.
Another data set deals with Colinus virginianus. The conditions noted are these: reproduction developmental.
A further data set deals with Coturnix japonica. The conditions noted are these: acute, oral, mortality.
The test system of a further data set is Daphnia magna. The conditions noted are these: chronic/long-term; duration: 21 days; reproduction.
For a further data set, the system named is Oncorhynchus mykiss. The note with it: acute; duration: 96 hours; mortality.
A further data set deals with Tagia sp. The conditions noted are these: acute; duration: 14 days; mortality.
The subject of another data set is Typhlodromus pyri. The conditions noted are these: acute.

In brackets after ≈: the same amount, converted by molar mass.

Take `c1coc(-c2nc3ccccc3[nH]2)c1` [Fuberidazole]: the LD50 with Apis mellifera was above 187 µg/piece; with Coturnix japonica it was above 750 mg/kg; with Rattus norvegicus (acute, mortality), above 300 mg/kg. The no observed adverse effect level (NOAEL) (commonly the highest dose or exposure tested at which no adverse effect was seen) in the data set on Canidae came to 0.72 mg/kg-day; with Rattus norvegicus (developmental, development), 8 mg/kg-day; with Rattus norvegicus (reproduction developmental, mortality), 4 mg/kg-day. Also, the NOEC in the data set on Colinus virginianus is above 76.9 mg/kg-day; in the data set on Daphnia magna, 0.12 mg/L. For the same compound, the LC50 is above 930 mg/kg-day in the data set on Coturnix japonica (diet), 0.91 µg/mL (≈ 4.94 µM) with Oncorhynchus mykiss and above 1000 mg/kg with Tagia sp.. Moreover, the LEL was 26 g/ha in the data set with Typhlodromus pyri (duration: 7 days, mortality) and 26 g/ha in the data set with Typhlodromus pyri (duration: 14 days, reproduction).
